Experimental data: patent US12338263B2, “Antibacterial aminoglycoside derivatives” (priority 2019, dated 2025)
≈ marks a conversion by molar mass, not a printed value.

Assays:
E. coli ATCC 25922 = experiment: Antibacterial effect (MIC), micro-liquid dilution method (CLSI); type: cell-based; conditions: Escherichia coli, ATCC25922
Procedure: (§1) Three strains Enterobacteriaceae E. coli ATCC 25922, E. coli ATCC BAA-2523, K. pneumonia ATCC BAA-1705 were used to determine the Minimum Inhibitory Concentration (MIC) of each compound by the micro-liquid dilution method according to the requirements of the Institute of Clinical and Laboratory Standard (CLSI). 2-fold series diluted compounds (with a final concentration range […]) were added to a round bottom 96-well plate (Catalog #3788, Corning). A single clone of fresh bacteria on the plate of Mueller Hinton II Agar (MHA, Cat. No. 211438, BD BBL™) after overnight culture was picked and suspended in sterile saline to adjust the concentration to 1×10^8 CFU/mL, and then diluted to 5×10^5 CFU/mL by Cation-Adjusted Mueller Hinton II Broth (MHB, Catalog #212332, BD BBL™), 100 μL of which was added to the round bottom 96-well plate containing the drug. The plate was inverted and incubated at 37° C. for 20-24 hours, and the MIC value was read. The lowest drug concentration that inhibits bacterial growth was defined as MIC.

E. coli ATCC BAA-2523 = experiment: as above; type: cell-based; conditions: Escherichia coli, ATCCBAA2523
Procedure: as §1

[1] = test system: K. pneumoniae ATCC BAA-1705; experiment: as above; type: cell-based; conditions: Klebsiella pneumoniae, ATCCBAA1705
Procedure: as §1

[2] = Evaluation of pharmacokinetics in rats; type: in vivo; conditions: rat, plasma, male SD rats, 150 mg/kg single intravenous drop infusion for 30 minutes
Procedure: • 1) Experimental drug: Compound 1; • 2) Experimental animals: 3 male SD rats aged 7-9 weeks; • 3) Drug preparation: An appropriate amount of the drug was weighed and dissolved in saline to forma 60 mg/mL solution. Experimental Operation:
Animals were administered the drug at a dose of 150 mg/kg and a concentration of 60 mg/mL by a single intravenous drop infusion via the tail vein for 30 minutes. Plasma samples were collected from the animals at 0, 0.0333, 0.0833, 0.25, 0.5, 1, 2, 4, 6, 8 and 24 hours after administration. The LC-MS/MS method was used to determine the drug concentration in the plasma sample, and the kinetic parameters of the tested drug are shown in Table 2: […]

[3] = test system: E. coli ATCC-25922 (Enterobacteria ATCC-25922); experiment: Drug efficacy in mice (mouse thigh muscle model); type: in vivo; conditions: CD-1 mice, 30 mpk subcutaneously 2 h and 10 h after infection, read at 24 h; FIG. 1
Procedure: 12 female CD-1 mice were divided into 4 cages, 3 mice per cage, and were injected intraperitoneally with the immunosuppressant cyclophosphamide (150 mpk).
24 hours later, 4 cages of mice were injected intraperitoneally again with the immunosuppressant cyclophosphamide (100 mpk). The strain E. coli ATCC-25922 (Enterobacteria ATCC-25922) was recovered on a MHA plate. The recovered colonies were picked and dissolved in saline to prepare E. coli ATCC-25922 bacterial solution with a concentration of 1.00E+07 CFU/mL for later use in mouse thigh muscle infection. The amount of bacterial solution injected into the thigh muscle of experimental mice was […], that is, the inoculation amount was 1.00E+06 CFU/mouse. […]
The specific administration of mice was as follows: • (1) 2 h after infection: At the end of 2 h infection, the thigh muscle tissue of the mice in the first cage was taken and placed in 10 mL saline, homogenized, and dotted on a plate with gradient dilution, two duplications for each mouse. The amount of bacteria loaded in the thigh muscle tissue of the mouse was counted. […] The amount of bacteria loaded in the thigh muscle tissue of the mouse was counted, and the experimental results were summarized and shown in FIG. 1.

cochlear hair cells = experiment: Auditory safety: hair cell staining and counting on the basilar membrane of the cochlea; type: in vivo, guinea pigs
Procedure: (§2) Healthy adult guinea pigs (150-250 g) were employed as the research objects, and were randomly divided into saline control group, gentamicin group, compound Plazomicin group and Compound 1 group, with 8 animals in each group. Subcutaneous administration is used, and the following assays were carried out during and after the administration for 14 consecutive days: • 1. To analyze the effects of different drugs on the auditory function of guinea pigs, the compound action potential (CAP) of animals was recorded on the 14th day (29th day, i.e., 4 weeks) after administration. The results obtained were analyzed and the changes of the threshold shift, amplitude, latency and other indicators among different treatment groups were compared. • 2. After the different groups of animals were processed and the auditory function data thereof were collected, the cochlea of the animals was taken out for fixation and staining. Surface preparation of basilar membrane of the cochlea on one side was performed to count the loss of hair cells so as to make a cochlea map, and the cochlea on the other side was decalcified and frozen sectioned. The density of spiral ganglion neurons was counted and compared among groups. Research Results: 1. Administration Method and Treatment
(§3) Gentamicin from Dalian Meilun Biotechnology Co., Ltd., and Plazomicin and Compound 1 from WuXi AppTec (WuHan) Co., Ltd. are used, the solution of which were prepared just before use each time by using saline for dissolution to the concentration of 50 mg/mL, and the injection dose was 100 mg/kg body weight. Method: subcutaneous injection, and confirmation of no liquid leakage after each injection.
In order to compare the effects of different drugs on hair cells, hair cell staining and counting on the whole basilar membrane of the cochlea are performed. […] The Plazomicin group had 11.2-28.1% loss of outer hair cells in the high frequency (70-100% from the apical turn) and 16.7-24.2% loss of the outer hair cells at the beginning of the apical turn (10-20%). However, in the Compound 1 group, the loss of outer hair cells only occurred in the low-frequency region (from the top turn −40%), in which the loss rate of outer hair cells was about 2.5-11%, and the outer hair cells were relatively intact in the high frequency area (see FIG. 6 B).

spiral ganglion neurons = experiment: Auditory safety: density of spiral ganglion neurons; type: in vivo, guinea pigs; conditions: guinea pig, in vivo, sc, 100 mg/kg
Procedure: as §2, §3
The cochlea of the guinea pig was defined as Turn 1, Turn 2, Turn 3, and Turn 4 from the basal to the apical turn. The spiral ganglion neurons (SGNs) were stained with TuJ on frozen sections, and the density thereof in a specific area were counted and compared between groups. […] Through the two-way ANOVA, there was a significant difference between the groups, F(3, 74)=35.43, p<0.0001 (see FIG. 7).

SMILES: CN[C@@H]1[C@@H](O)[C@@H](O[C@@H]2[C@@H](O)[C@H](O[C@H]3OC(CNCCOCCONC(=N)N)=CC[C@H]3N)[C@@H](N)C[C@H]2NC(=O)[C@@H](O)CCN)OC[C@]1(C)O [Compound 1]
- MIC (E. coli ATCC 25922): 2 µM (≈ 1.39 µg/mL)
- MIC (E. coli ATCC BAA-2523): 2 µM (≈ 1.39 µg/mL)
- MIC [1]: 4 µM (≈ 2.78 µg/mL)
- AUC ([2]; read-out: Area Under the Curve AUC): 440 µM·h
- clearance ([2]; read-out: Clearance Rate Cl): 9.48 mL/min/kg
- half-life ([2]; read-out: Half-Life T1/2 (converted)): 3.62 h
- Cmax ([2]; read-out: Maximum Concentration Cmax): 316 µM
- Vd ([2]; read-out: Volume of Distribution Vd): 1.5 L/kg
- in vivo efficacy (bacteria loaded in thigh muscle tissue), compared with Plazomicin [3]: better in vivo efficacy than Plazomicin
- loss rate of outer hair cells (cochlear hair cells; guinea pig, in vivo, 29 day): 2.5-11%
- damage to inner hair cells (overall) (cochlear hair cells; guinea pig, in vivo, sc, 100 mg/kg): almost undamaged
- hair cell toxicity (overall) (cochlear hair cells; guinea pigs, 100 mg/kg subcutaneous 14 days): significantly lower than that of the Gentamicin and the Plazomicin
- damage to spiral ganglion neurons (SGN density vs Control group) (spiral ganglion neurons): no damage to spiral ganglion neurons
